According to the Biogen ADME set (Fang et al. 2023):
Converted amounts (≈) assume the structure as drawn.

Settings: for aqueous solubility: pH 6.8

Structure (SMILES)	aqueous solubility	intrinsic clearance, human liver microsomes	intrinsic clearance, rat liver microsomes	MDR1-MDCK efflux ratio	fraction unbound, human plasma	fraction unbound, rat plasma
CC1(C)CC[C@]2(C(=O)O)CC[C@]3(C)C(C(=O)C=C4[C@@]5(C)C=C(C#N)C(=O)C(C)(C)[C@@H]5CC[C@]43C)C2C1 (stereo partly specified)	63.5 µg/mL (≈ 129 µM)	–	–	–	–	–
Cc1noc(C)c1N(C)CCn1cncn1	–	≤ 4.74 mL/min/kg	38.4 mL/min/kg	–	–	–
Cc1nc(-c2cnn(C)c2-c2ccc(C(F)(F)F)cn2)c2c(N3CCC3)ncnn12	65.1 µg/mL (≈ 157 µM)	54.3 mL/min/kg	294 mL/min/kg	12.2	–	–
Cc1cc(NC(=O)[C@H](C)N(C)C)c2ccccc2n1	–	9.63 mL/min/kg	109 mL/min/kg	0.813	–	–
Cn1ccnc1COc1ccc(CO)cc1	57.4 µg/mL (≈ 263 µM)	–	–	–	–	–
N#Cc1ccc(CCC(=O)Nc2ccncc2)cc1	37.9 µg/mL (≈ 151 µM)	≤ 4.74 mL/min/kg	60.3 mL/min/kg	1.39	–	–
Cc1ccnc2[nH]c(CSCc3ccccc3)nc12	–	84.4 mL/min/kg	647 mL/min/kg	–	–	–
O=C(NCc1ccc(O)c(O)c1)c1ccc2ccccc2n1	55.4 µg/mL (≈ 188 µM)	≤ 4.74 mL/min/kg	315 mL/min/kg	–	–	–
CCc1cnc(C)nc1-c1ccc(-c2ccn[nH]2)cc1	20.7 µg/mL (≈ 78.5 µM)	≤ 4.74 mL/min/kg	75 mL/min/kg	0.85	–	–
CN(CCOc1ccccc1)CC(=O)NCCc1ccccc1	–	267 mL/min/kg	5420 mL/min/kg	0.728	–	–
O=C(c1cn(Cc2cncn2Cc2ccc(Br)cc2)cc1-c1cccc2ccccc12)N1CCOCC1	–	150 mL/min/kg	2010 mL/min/kg	22.8	–	–
CCc1noc(C2CCC(NCC3CCC(F)(F)CC3)CC2)n1 (stereo unspecified)	75.9 µg/mL (≈ 232 µM)	54.4 mL/min/kg	240 mL/min/kg	2.98	–	–
O=C(Nc1ccc(-c2nnn[nH]2)cc1)c1cc(COc2ccc(F)cc2)on1	16.4 µg/mL (≈ 43 µM)	–	–	–	–	–
CCN(Cc1ccccc1)C(=O)c1cccnc1N	36.7 µg/mL (≈ 144 µM)	≤ 4.74 mL/min/kg	174 mL/min/kg	0.65	–	–
CCS(=O)(=O)CC(=O)Nc1cc(C)ccc1C	40.4 µg/mL (≈ 158 µM)	≤ 4.74 mL/min/kg	≤ 10.7 mL/min/kg	–	–	–
CN(CCOCCOc1ccccc1-c1ccccc1)Cc1ccccc1.O=C(O)C(=O)O	29 µg/mL	216 mL/min/kg	1520 mL/min/kg	1.82	–	–
NC1(c2ccc(-c3nc4ccn5c(=O)[nH]nc5c4cc3-c3ccccc3)cc2)CCC1	–	14.7 mL/min/kg	17.1 mL/min/kg	–	–	–
COc1cc(C#N)ccc1Oc1nc2ccccc2o1	8.7 µg/mL (≈ 32.7 µM)	–	–	–	–	–
CC(C)(C=C(C#N)C(=O)N1CCC[C@@H](n2nc(-c3ccc(Oc4ccccc4)cc3F)c3c(N)ncnc32)C1)N1CCN(C2COC2)CC1	35.8 µg/mL (≈ 53.7 µM)	535 mL/min/kg	1140 mL/min/kg	35.9	0.0189	0.0133

Structure (SMILES)	aqueous solubility	intrinsic clearance, human liver microsomes	intrinsic clearance, rat liver microsomes	MDR1-MDCK efflux ratio	fraction unbound, human plasma	fraction unbound, rat plasma
Cc1n[nH]c(C)c1CCCN(C)c1cncc(C(=O)N(C)C)n1	–	87.4 mL/min/kg	529 mL/min/kg	93.7	–	–
NCc1ccc(Oc2ccccc2)nc1	22 µg/mL (≈ 110 µM)	20.7 mL/min/kg	50.5 mL/min/kg	–	–	–
CCOC(=O)Nc1cc(-c2ccc(C)c(NS(C)(=O)=O)c2)nn2c(C)nnc12	51.4 µg/mL (≈ 127 µM)	7.01 mL/min/kg	124 mL/min/kg	28.4	–	–
CN(C)c1cc(CNC(=O)C2CCOCC2)ccn1	41.2 µg/mL (≈ 156 µM)	≤ 4.74 mL/min/kg	≤ 10.7 mL/min/kg	4.87	–	–
COc1cc(C)cc(OC)c1-c1ccc(-c2nn[nH]n2)cc1	–	≤ 4.74 mL/min/kg	83.2 mL/min/kg	1.97	–	–
CNc1nc(-c2cc(OC)cc(OC)c2)ncc1F	25.6 µg/mL (≈ 97.4 µM)	37.1 mL/min/kg	118 mL/min/kg	0.408	–	–
Oc1ccc(CN2CCN(c3cccc(Cl)c3)CC2)cc1	2.2 µg/mL (≈ 7.27 µM)	33.6 mL/min/kg	90 mL/min/kg	0.451	–	–
O=S(=O)(NCc1n[nH]c2c1CCCCC2)c1ccc(OC(F)F)cc1	–	361 mL/min/kg	1760 mL/min/kg	7.25	–	–
COc1ccc(Oc2cc(C)c(-c3csc(NC(=O)c4ccncc4)n3)c(C)c2)cc1	0.31 µg/mL (≈ 0.718 µM)	–	–	–	–	–
COc1ccc(C(=O)c2ccccc2)c(Oc2nc3c(c(=O)n(C)c(=O)n3C)n2C)c1	49.3 µg/mL (≈ 117 µM)	21.5 mL/min/kg	1510 mL/min/kg	1.83	–	–
NS(=O)(=O)OC[C@@H]1C[C@@H](n2ccc3c(N[C@H]4CCc5ccccc54)ncnc32)C[C@@H]1O	44.4 µg/mL (≈ 100 µM)	40.9 mL/min/kg	680 mL/min/kg	51.9	–	–
O=C(O)c1ccccc1-c1ccc(CN2CCCCC2)cc1	91.9 µg/mL (≈ 311 µM)	≤ 4.74 mL/min/kg	54.3 mL/min/kg	4.17	–	–
CN(c1ncc(F)cn1)[C@H]1CCCNC1	–	≤ 4.74 mL/min/kg	≤ 10.7 mL/min/kg	0.438	1	1
COc1ccc(CC(=O)N2CCc3[nH]c4ccc(Cl)cc4c3C2)cc1OC	6.7 µg/mL (≈ 17.4 µM)	120 mL/min/kg	675 mL/min/kg	6.37	–	–
C#CCOc1ccc(OC)cc1C(N)=O	–	13.8 mL/min/kg	73.3 mL/min/kg	0.717	–	–
COc1ccccc1-c1csc(-n2ncc(C#N)c2N)n1	0.13 µg/mL (≈ 0.437 µM)	–	–	–	–	–
CCc1ccccc1NC(=O)Cn1nc(C)cc1C	44.2 µg/mL (≈ 172 µM)	25.2 mL/min/kg	94.9 mL/min/kg	0.716	–	–
Cc1ccc(Oc2ccc(Cl)cc2NC(=O)CN(C)CC(=O)N(C)C)cc1	–	1050 mL/min/kg	2420 mL/min/kg	1.61	0.00885	–
CC(=O)c1ccc(OCCCCN2CCCC2)cc1	36.3 µg/mL (≈ 139 µM)	≤ 4.74 mL/min/kg	453 mL/min/kg	0.895	–	–

Results, then the molecule that gave them:

aqueous solubility	intrinsic clearance, human liver microsomes	intrinsic clearance, rat liver microsomes	MDR1-MDCK efflux ratio	fraction unbound, human plasma	fraction unbound, rat plasma	Structure (SMILES)
39.8 µg/mL (≈ 132 µM)	33.9 mL/min/kg	108 mL/min/kg	–	–	–	CCc1csc(NC(=O)c2ccc3c(c2)nc(C)n3C)n1
57.5 µg/mL (≈ 132 µM)	≤ 4.74 mL/min/kg	23.9 mL/min/kg	20.6	–	–	CNC(=O)c1cn(C)nc1CC1CCN(Cc2cnc(-c3ccc(OC)cc3)nc2)CC1
32.6 µg/mL (≈ 106 µM)	329 mL/min/kg	1410 mL/min/kg	47.6	–	–	CC(C)C[C@@H](C(N)=O)n1ccnc1-c1cccc2ccccc12
43.9 µg/mL (≈ 102 µM)	169 mL/min/kg	–	50.3	0.00604	0.00729	CCCc1nc2nc(C)c(NS(=O)(=O)c3ccc(C4CCCCC4)cc3)c(O)n2n1
21.9 µg/mL (≈ 58 µM)	10.4 mL/min/kg	393 mL/min/kg	51	–	–	O=C(CN1CCC(n2c(=O)[nH]c3ccccc32)CC1)N1CCc2ccccc21
0.2 µg/mL (≈ 0.533 µM)	–	–	–	–	–	Cc1cc(Nc2cc(N3CCN(C)CC3)nc(/C=C/c3ccccc3)n2)n[nH]1
35 µg/mL (≈ 111 µM)	826 mL/min/kg	4200 mL/min/kg	1.13	–	–	CC(C)c1cccc(CN2C(=O)N(C)C3(CCCCC3)C2=O)n1
–	7.33 mL/min/kg	498 mL/min/kg	–	–	–	CCCn1ncc(CN2CCC(c3ncc[nH]3)CC2)c1C
–	555 mL/min/kg	2330 mL/min/kg	1.86	–	–	Cc1cccc([C@H]2CN(C(=O)C3CCCC3)[C@@H]3CCN(CC4CC4)C[C@H]23)c1
1.09 µg/mL (≈ 2.84 µM)	125 mL/min/kg	804 mL/min/kg	0.804	–	–	Cc1cc(C)c(C#N)c(N2CCN(CC(=O)Nc3ccccc3Cl)CC2)n1
49.1 µg/mL (≈ 132 µM)	32.1 mL/min/kg	999 mL/min/kg	22.3	–	–	CC(C)c1nc(O)c2nnn(C[C@@H]3CCCN(Cc4cccs4)C3)c2n1
–	13.7 mL/min/kg	131 mL/min/kg	40.4	–	–	CCc1nnc(Nc2cc(C)nc(C3CN(C(=O)C(C)C)CCO3)c2)s1 (stereo unspecified)
41.3 µg/mL (≈ 168 µM)	≤ 4.74 mL/min/kg	461 mL/min/kg	–	–	–	NC(=O)CN1CCC(CCc2ccccc2)CC1
52.6 µg/mL (≈ 173 µM)	≤ 4.74 mL/min/kg	84 mL/min/kg	12.5	–	–	O=c1ccc(C2CC2)nn1CC1CN(CC2(O)CCCC2)C1
29.9 µg/mL (≈ 139 µM)	232 mL/min/kg	337 mL/min/kg	0.533	–	–	Nc1nc2ccccc2nc1N1CCCC1
–	38.2 mL/min/kg	218 mL/min/kg	28.7	0.0128	0.00864	CCOc1cc(CC(=O)N[C@@H](CC(C)C)c2ccccc2N2CCCCC2)ccc1C(=O)O
39.7 µg/mL (≈ 140 µM)	9.73 mL/min/kg	571 mL/min/kg	1.08	–	–	Cc1cc(C)n(-c2ccc(CNC(=O)C3CCC3)cn2)n1
20 µg/mL (≈ 39.5 µM)	14.4 mL/min/kg	24 mL/min/kg	46	–	–	COCCNc1cc(NC(=O)N2CCCc3cc(CN4CCN(C)CC4=O)c(C=O)nc32)ncc1C#N
